We go through 2 compounds from patent publication EP1038880B1, “Androstanes and pregnanes for allosteric modulation of GABA receptor” (priority 1994, dated 1995).

Data set [1] in a line: Rotorod test (general CNS depression potential). The following applies: mouse, in vivo, ip. How it is done:
The anticonvulsant tests are similar to that described above. […] The number of animals with tonic and/or clonic convulsions was recorded. In the maximal electroshock test, 50 mA of current at 60 Hz was delivered through corneal electrodes for 200 msec to induce tonic seizure. The ability of compounds to abolish the tonic component was defined as the endpoint. General CNS depression potential was determined by a rotorod test 10 minutes after the injection of compounds where the number of mice staying on a rotating (6 rpm) rod for 1 minute in one of the three trials was determined. […] Table 7. Anticonvulsant Activity of Exemplified Neuroactive Steroids and those of Selected Clinically Useful Anticonvulsants in Mice

The subject of the next data set is Sprague-Dawley rats. The data set can be described thus: Geller-Seifter conflict test. It counts as in vivo. Conditions: subcutaneous administration (Figure 10). From the text:
This animal model of human anxiety utilizes a conditioned state of conflict in rats to ascertain the anxiolytic properties of drugs. […] The first includes bar pressing under a variable […] schedule without punishment. The second component is a fixed ratio schedule with each bar press resulting in a positive reinforcement and a punishment. The punished component produces a state of conflict within the animal. […] An anxiolytic response would increase the punished responding without affecting the unpunished responding.
Rats were housed individually under a 12-hour light-dark cycle with lights on from 0700-1900.
Rats were trained in test chambers (Coulbourn instruments) with a lever mounted in one wall, a small dipper that delivered the 0.1-mL milk reward (1 part Eagle condensed : milk 2 parts water), and a metal grid floor through which the foot-shock punishment was administered. A DEC PDP 11/73 minicomputer nmning SKED (State Systems) was used for programming and recording.
Rates initially learned to respond on a continuous reinforcement schedule and progressed rapidly to 30-sec, 1-min, and 2-min variable interval (VI) schedules. On the continuous reinforcement schedule, rats received milk reward following every lever press; on the VI schedules, milk rewards were available at infrequent and variable intervals, eventually at an average of once every 2 min. […] During conflict periods, which were signalled by the presentation of a light and a tone, the continuous reinforcement schedule was again in force and each lever press delivered both a milk reward and a brief ([…]) foot-shock Shock intensity was 0.2 mA initially, and.was increased daily in increments of 0.02 mA in order to gradually suppress lever pressing to 5 responses or less per conflict period. […] Drug-induced increases in the rate of punished responses were taken as an index of antianxiety activity, while decreases in the rate of unpunished responses were taken as an index of response depression or sedation.

By ED50 is commonly meant the midpoint of the dose-response relation. A higher ED50 goes with a need for a large dose. `C[C@]12CC[C@@H](O)C[C@@H]1CC[C@@H]1[C@@H]2CC[C@]2(C)[C@@H](C(=O)CO)CC[C@@H]12` [3α,21-dihydroxy-5α-pregnan-20-one]: in data set [1], the 50% effect level (ED50 at 10 min) was put at a dose of 22.9 mg/kg.
On to `CC(=O)[C@H]1CC[C@H]2[C@@H]3CC[C@H]4C[C@H](O)CC[C@]4(C)[C@H]3CC[C@]12C` [3α-Hydroxy-5α-pregnan-20-one, 3α-hydroxy-5α-pregnan-20-one], for which the “dose of peak effect on rate of punished responses” value with Sprague-Dawley rats turned out to be 4.4 mg/kg.
